In this test the target is T1, glucocerebrosidase (GCase) (Homo sapiens, UniProt P04062).
T1 sequence (P04062 40-536): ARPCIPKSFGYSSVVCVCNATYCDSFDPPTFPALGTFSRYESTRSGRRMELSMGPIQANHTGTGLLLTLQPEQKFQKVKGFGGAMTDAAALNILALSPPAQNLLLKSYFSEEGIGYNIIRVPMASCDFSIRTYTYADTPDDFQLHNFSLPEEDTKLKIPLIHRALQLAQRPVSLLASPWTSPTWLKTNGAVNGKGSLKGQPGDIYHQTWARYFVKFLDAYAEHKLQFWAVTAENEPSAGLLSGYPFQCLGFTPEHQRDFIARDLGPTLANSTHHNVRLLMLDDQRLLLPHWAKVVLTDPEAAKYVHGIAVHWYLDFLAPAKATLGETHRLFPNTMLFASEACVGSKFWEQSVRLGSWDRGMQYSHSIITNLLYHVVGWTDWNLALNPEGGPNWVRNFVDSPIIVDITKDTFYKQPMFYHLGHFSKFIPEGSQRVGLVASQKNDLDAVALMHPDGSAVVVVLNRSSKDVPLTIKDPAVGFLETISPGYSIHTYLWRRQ
The test is described as follows: Glucocerebrosidase activation (Table 1, Exemplary Compounds and Activities). The class given is biochemical. To be noted: activation of glucocerebrosidase; for Emax: read-out: Maximum Activation (Emax). The text has this:
The compounds disclosed herein preferably modulate activity of glucocerebrosidase. Modulation may include inhibiting or decreasing glucocerebrosidase activity. Modulation also may include activating or increasing glucocerebrosidase activity. Glucocerebrosidase activity may be assessed utilizing methods known in the art and the methods disclosed herein, including the methods disclosed in the Examples provided herein. In some embodiments, the compounds decrease or increase glucocerebrosidase activity relative to a control (e.g., by at least about 10%, 20%, 30%, 40%, 50%, 60%, 70%, 80%, 90%, 100%, 200%, 300%, 400%, 500%, 600%, 700%, 800%, 900%, 1000% or more (or within a range bounded by any of these values)). In other embodiments, the compounds activate glucocerebrosidase greater than about 2-fold, 3-fold, 4-fold, 5-fold, 10-fold, 20-fold, 30-fold, 40-fold, 50-fold, 60-fold, 70-fold, 80-fold, 90-fold, or 100-fold, relative to a control. […] In other embodiments, an AC50 value for the compound in regard to activation of glucocerebrosidase may be determined and preferably the compound has an AC50 value of less than about 10 μM, 5 μM, or 1 μM, 0.5 μM, 0.1 μM, 0.05 μM, 0.01 μM, 0.005 μM, or 0.001 μM (or within a range bounded by any of these values).
Methods for measuring glucocerebrosidase activity are known in the art. (See, e.g., U.S. Publication No. 2017/0001976 and U.S. Publication No. 2017/0002013 and Zheng et al. “Design and Synthesis of Potent Quinazolines as Selective β-Glucocerebrosidase Modulators, J. Med. Chem. 2016 September 22; 59(18): 8508-8520; the contents of which are incorporated herein by reference in their entireties).
The disclosed pyrrolopyrimidine compounds were synthesized and tested using the methods described below. Additional methods for synthesizing and testing pyrrolopyrimidine compounds are described in the art. (See, e.g., Zheng et al., β-Glucocerebrosidase Modulators Promote Dimerization of β-Glucocerebrosidase and Reveal an Allosteric Binding Site, J. Am. Chem. Soc., 2018, 140 (18), pp 5914-5924; and U.S. Pat. No. 9,802,942; the contents of which are incorporated herein by reference in their entireties).

From patent US10882865B2, “Pyrrolopyrimidine compounds and uses thereof for modulating glucocerebrosidase activity” (Northwestern University, priority 2018, dated 2021) come the findings set out here.

On to `COC(=O)Cc1cccc(NC(=O)c2ccn3c(C)cc(C)nc23)c1` [compound 1], for which the AC50 worked out at 6.59 µM and the maximal response (Emax) amounted to 450%.
As for `Cc1cc(C)n2ccc(C(=O)Nc3cccc(CC(=O)O)c3)c2n1` [compound 2], the AC50 came to 30 µM and the Emax is 550%.
For `Cc1cc(C)n2ccc(C(=O)Nc3cccc(CC(=O)ON4C(=O)CCC4=O)c3)c2n1` [compound 3, 2,5-dioxopyrrolidin-1-yl 2-(3-(2,4-dimethylpyrrolo[1,2-a]pyrimidine-8-carboxamido)phenyl)acetate] the same measures were 9.09 µM and 500%.
On to `CCOC(=O)c1cccc(NC(=O)c2ccn3c(C)cc(C)nc23)c1` [compound 4], for which the AC50 was 1.18 µM and the Emax amounted to 400%.
For `Cc1cc(C)n2ccc(C(=O)Nc3cccc(C(=O)O)c3)c2n1` [compound 5] the same measures were 2.87 µM and 175%.
Take `Cc1cc(C)n2ccc(C(=O)Nc3cccc(C(=O)ON4C(=O)CCC4=O)c3)c2n1` [compound 6]: half-maximal activity (AC50) was put at 4.59 µM and the Emax came out at 460%.
For `Cc1cc(C)n2ccc(C(=O)Nc3cccc(N)c3)c2n1` [compound 7] the same measures were 3.39 µM and 210%.
Taken in the same sequence, the figures for `Cc1cc(C)n2ccc(C(=O)Nc3cccc(NC(=O)CCl)c3)c2n1` [compound 8] were 3.43 µM and 480%.
Take `Cc1cc(C)n2ccc(C(=O)Nc3cccc(C(C)C)c3)c2n1` [compound 9]: half-maximal activity (AC50) was put at 2.23 µM and the maximum response (Emax) is 280%.
For `Cc1cc(C)n2ccc(C(=O)Nc3cccc4c3CCC4)c2n1` [compound 10] the same measures were 0.77 µM and 202%.
For `Cc1cc(C)n2ccc(C(=O)Nc3cccc4c3CCCC4)c2n1` [compound 11] the same measures were 1.41 µM and 400%.
Take `Cc1cc(C)n2ccc(C(=O)Nc3cccc(CC(C)C)c3)c2n1` [compound 12]: half-maximal activity (AC50) was put at 3.44 µM and the maximal response (Emax) came to 300%.
For `COC(=O)CCc1ccc(NC(=O)c2ccn3c(C)cc(C)nc23)cc1` [compound 13] the same measures were 0.63 µM and 180%.
Turning to `C=CC(=O)Nc1cccc(NC(=O)c2ccn3c(C)cc(C)nc23)c1` [compound 14], the AC50 was determined as 6.46 µM.
As to `Cc1cc(C)n2ccc(C(=O)Nc3ccc(CCC(=O)O)cc3)c2n1` [compound 15], the AC50 is 36.6 µM and the Emax amounted to 700%.
For `Cc1cc(C)n2ccc(C(=O)Nc3ccc4c(c3)C(=O)CC4)c2n1` [compound 16] the same measures were 1.49 µM and 225%.
For `Cc1cc(C)n2ccc(C(=O)Nc3ccc4c(c3)C(=O)CCC4)c2n1` [compound 17] the same measures were 3.88 µM and 750%.
Taken in the same sequence, the figures for `CCOC(=O)c1ccc(NC(=O)c2ccn3c(C)cc(C)nc23)cc1` [compound 19] were 0.71 µM and 250%.
Consider `CCOC(=O)Cc1ccc(NC(=O)c2ccn3c(C)cc(C)nc23)cc1` [compound 20], for which the AC50 came out at 6.1 µM and the Emax was 550%.
As to `Cc1cc(C)n2ccc(C(=O)Nc3ccc(C(=O)O)cc3)c2n1` [compound 21], the activity was half-maximal at 35.5 µM (AC50) and the maximal effect (Emax) amounted to 622%.
For `Cc1cc(C)n2ccc(C(=O)Nc3ccc(CC(=O)O)cc3)c2n1` [compound 22] the same measures were 35.5 µM and 429%.
For `Cc1cc(C)n2ccc(C(=O)NCC3COc4ccccc4O3)c2n1` (centres unmarked) [compound 23] the same measures were 28.2 µM and 644%.
Taken in the same sequence, the figures for `Cc1cc(C)n2ccc(C(=O)Nc3ccc4c(c3)CCCC4)c2n1` [compound 24] were 3.55 µM and 527%.
`Cc1cc(C)n2ccc(C(=O)Nc3ccc4c(c3)COC4)c2n1` [compound 25]: the AC50 is 7.94 µM and the Emax turned out to be 456%.
In the case of `Cc1cc(C)n2ccc(C(=O)Nc3ccc4c(c3)CCC4)c2n1` [compound 26], half-maximal activity (AC50) was put at 1.12 µM and the maximal response (Emax) is 290%.
With `Cc1cc(C)n2ccc(C(=O)Nc3ccc(CCC(=O)ON4C(=O)CCC4=O)cc3)c2n1` [compound 27], the AC50 was found to be 2.82 µM and the Emax turned out to be 620%.
Taken in the same sequence, the figures for `Cc1cc(C)n2ccc(C(=O)Nc3ccc(C(=O)ON4C(=O)CCC4=O)cc3)c2n1` [compound 28] were 50 µM and 115%.
As for `Cc1cc(C)n2ccc(C(=O)Nc3ccc(CC(=O)ON4C(=O)CCC4=O)cc3)c2n1` [compound 29], the AC50 was found to be 4.47 µM and the Emax was determined as 374%.
As for `Cc1cc(C)n2ccc(C(=O)Nc3ccc4c(c3)CCO4)c2n1` [compound 30], the half-maximal activity concentration (AC50) is 1.12 µM and the Emax was 198%.
On to `Cc1cc(C)n2ccc(C(=O)Nc3ccc4c(c3)CCCC4=O)c2n1` [compound 31], for which the AC50 worked out at 1 µM and the Emax is 355%.
With `Cc1cc(C)n2ccc(C(=O)Nc3c(C)nn(Cc4ccccc4)c3C)c2n1` [compound 33], the activity was half-maximal at 39.8 µM (AC50) and the Emax is 914%.
Regarding `COC(=O)CCc1cccc(NC(=O)c2ccn3c(C)cc(C)nc23)c1` [compound 34], the AC50 is 3.55 µM and the Emax turned out to be 578%.
In the case of `Cc1cc(C)n2ccc(C(=O)Nc3ccccc3Oc3ccccc3)c2n1` [compound 35], half-maximal activity (AC50) was put at 2.24 µM and the maximal response (Emax) worked out at 298%.
For `Cc1cc(C)n2ccc(C(=O)Nc3cccc(Oc4ccccc4)c3)c2n1` [compound 36] the same measures were 1.42 µM and 280%.
On to `Cc1cc(C)n2ccc(C(=O)Nc3cccc(CCC(=O)O)c3)c2n1` [compound 37], for which half-maximal activity (AC50) was put at 8.91 µM and the Emax stood at 427%.
Taken in the same sequence, the figures for `Cc1cc(C)n2ccc(C(=O)Nc3cccc(CCC(=O)ON4C(=O)CCC4=O)c3)c2n1` [compound 38] were 4.47 µM and 810%.
In turn, `COC(=O)Cc1cc(NC(=O)c2ccn3c(C)cc(C)nc23)ccc1-c1cn(CCOCCOCCO)nn1` [compound 39] had an AC50 of 10 µM.
`COC(=O)Cc1cc(NC(=O)c2ccn3c(C)cc(-c4cccnc4)nc23)ccc1-c1cn(CCOCCOCCO)nn1` [compound 40]: the concentration at half-maximal activity (AC50) was determined as 4.47 µM.
On the same count and under the same terms, the result for `Cc1cc(C)n2ccc(C(=O)Nc3ccc(-c4cn(CCOCCOCCO)nn4)c(CC(=O)O)c3)c2n1` [compound 41] reads 28.2 µM.
In the case of `Cc1cc(C)n2ccc(C(=O)NCc3ccccc3CNC(=O)c3ccn4c(C)cc(C)nc34)c2n1` [compound 42], the AC50 was found to be 5 µM and the Emax came out at 715%.
Consider `Cc1cc(C)n2ccc(C(=O)Nc3cccc(-c4ccccc4)c3)c2n1` [compound 43], for which the AC50 was 1.41 µM and the maximal response (Emax) was determined as 296%.
For `Cc1cc(C)n2ccc(C(=O)Nc3nc4c(s3)CCCC4)c2n1` [compound 44] the same measures were 1.58 µM and 342%.
Taken in the same sequence, the figures for `Cc1cc(C)n2ccc(C(=O)Nc3nc4c(s3)CC(C)CC4)c2n1` (centres unmarked) [compound 45] were 1.78 µM and 325%.
As for `Cc1cc(C)n2ccc(C(=O)Nc3nc4c(s3)CC(C)(C)CC4)c2n1` [compound 46], half-maximal activity (AC50) was put at 1.12 µM and the Emax is 230%.
Take `CCOC(=O)Cc1cc(NC(=O)c2ccn3c(C)cc(C)nc23)ccc1CCCOCCOCCOCCOCCNC(=O)C1CCCCC1` [compound 48]: the AC50 amounted to 3.16 µM and the Emax was 796%.
The compound `Cc1cc(C)n2ccc(C(=O)Nc3ccc(CCCOCCOCCOCCOCCNC(=O)C4CCCCC4)c(CC(=O)ON4C(=O)CCC4=O)c3)c2n1` [compound 49] registered an AC50 of 3.55 µM.
Consider `Cc1cc(C)n2ccc(C(=O)Nc3cccc(CC(=O)Oc4ccccc4)c3)c2n1` [compound 50], for which half-maximal activity (AC50) was put at 4.47 µM and the maximal response (Emax) amounted to 230%.

In general, AC50 refers to the concentration giving half of the maximal activity seen. The low end stands for activity at low concentration, the high end for activity only at high concentration. As usually defined, the Emax is the maximal effect, on the per cent scale that the assay sets.
